Laboratory results as given in patent US20050043292A1, “Fluorinated lysine derivatives as dipeptidyl peptidase IV inhibitors” (Pfizer Inc, priority 2003, published 2005).
Counter-ions that a name gives are not always drawn.

Biological target: T1, DPP-IV (Homo sapiens, UniProt P27487)
T1 construct: purchased Enzyme Systems Products SPE-01
Assay: In vitro Assay for Dipeptidyl Peptidase Inhibition
Format: biochemical
Settings: in vitro activity, Gly-Pro-4-methoxy-β-naphthylamide substrate, overnight at 37° C., read-out: IC50 (concentration of test compound required for 50% inhibition)
Description: 150 μL of an enzyme-substrate solution is pipetted into microtiter wells of a polystyrene 96-well plate, and maintained at 4° C. The enzyme-substrate solution comprises 50 μM Gly-Pro4-methoxy B naphthylamide HCl in 50 mM Tris assay buffer pH 7.3 containing 0.1M sodium chloride, 0.1% (v/v) Triton and 50 μU/mL DPP-IV (Enzyme Systems Products Cat#SPE-01, DPP-IV 5 mU/mL stock). 5μL/well of compounds of Formula I are added, bringing the final compound of Formula I concentrations to 3 μM-10 nM per well.
Controls. Enzyme is omitted from four (4) wells, as a reagent blank. 5 μL of 3 mM Diprotin A is added to four wells as a positive quality control, providing a final Diprotin A concentration of 100 μM. To measure total enzyme activity (i.e. a negative control), without the influence of any compounds of Formula I, 5 μL of distilled water is added to four wells.
The entire assay is incubated overnight (about 14-18 hours) at 37° C.

T1 sequence (P27487 whole entry, species assumed): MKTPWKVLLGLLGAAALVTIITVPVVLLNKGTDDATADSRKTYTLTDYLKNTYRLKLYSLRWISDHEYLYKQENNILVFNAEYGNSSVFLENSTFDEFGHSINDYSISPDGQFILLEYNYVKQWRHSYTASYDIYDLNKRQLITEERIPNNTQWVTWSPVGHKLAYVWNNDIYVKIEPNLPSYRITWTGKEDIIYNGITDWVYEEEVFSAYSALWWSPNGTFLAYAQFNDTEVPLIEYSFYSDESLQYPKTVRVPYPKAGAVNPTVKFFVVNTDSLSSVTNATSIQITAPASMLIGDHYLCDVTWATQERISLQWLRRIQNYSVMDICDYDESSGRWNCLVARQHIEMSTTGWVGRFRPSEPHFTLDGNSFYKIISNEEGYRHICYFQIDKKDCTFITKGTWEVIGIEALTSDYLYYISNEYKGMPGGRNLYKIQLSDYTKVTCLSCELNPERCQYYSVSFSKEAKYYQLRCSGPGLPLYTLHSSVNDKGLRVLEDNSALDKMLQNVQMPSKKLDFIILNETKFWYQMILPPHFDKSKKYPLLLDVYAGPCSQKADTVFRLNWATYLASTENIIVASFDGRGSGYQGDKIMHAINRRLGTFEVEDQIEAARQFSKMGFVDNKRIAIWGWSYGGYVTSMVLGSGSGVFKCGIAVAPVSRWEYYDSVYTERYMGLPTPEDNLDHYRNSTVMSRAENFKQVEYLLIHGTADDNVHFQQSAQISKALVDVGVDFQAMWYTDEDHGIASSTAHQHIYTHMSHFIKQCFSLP

- IC50: ~1400 nM
SMILES: N[C@@H](CCCCNC(=O)COc1ccccc1)C(=O)N1CC(F)(F)C(F)(F)C1 [Example 6, (S)-N-[5-Amino-6-oxo-6-(3,3,4,4-tetrafluoro-pyrrolidin-1-yl)-hexyl]-2-phenoxy-acetamide Hydrochloride]
